The values below come from ChEMBL document CHEMBL4680158, “C6-O-alkylated 7-deazainosine nucleoside analogues: Discovery of potent and selective anti-sleeping sickness agents” (Eur J Med Chem, 2020).

Series [1] concerns Trypanosoma brucei brucei. In words: Antitrypanosomal activity against Trypanosoma brucei brucei assessed as reduction in parasite growth incubated for 3 days by resazurin dye based fluorescence assay. To be noted: 72 h. It counts as functional, organism-based. On the technique in general: The colour change of resazurin is a common sign of viable cells or microbes.
The subject of series [2] is Trypanosoma brucei rhodesiense. In words: Antitrypanosomal activity against Trypanosoma brucei rhodesiense assessed as reduction in parasite growth incubated for 3 days by resazurin dye based fluorescence assay. To be noted: 72 h. Type of series: functional, organism-based.
The next series deals with MRC5. In words: Cytotoxicity against human MRC5 cells assessed as reduction in cell viability incubated for 3 days by resazurin dye based fluorescence assay. The following applies: MRC5, 72 h.
Series [3] is described as follows: Selectivity index, ratio of EC50 for cytotoxicity against human MRC5 cells to EC50 for antitrypanosomal activity against Trypanosoma brucei rhodesiense. Type of series: toxicity, cell-based. The following applies: read-out: Ratio EC50.
Series [4] in a line: Selectivity index, ratio of EC50 for cytotoxicity against human MRC5 cells to EC50 for antitrypanosomal activity against Trypanosoma brucei brucei. The following applies: read-out: Ratio EC50. It counts as toxicity, cell-based.
The nature of series [5]: Resistance factor, ratio of EC50 for antitrypanosomal activity against drug resistant Trypanosoma brucei harboring TbAT1 deficient to antitrypanosomal activity against Trypanosoma brucei brucei Lister 427 blood stream form. It counts as functional.
Series [6] is described as follows: Resistance factor, ratio of EC50 for antitrypanosomal activity against drug resistant Trypanosoma brucei B48 to antitrypanosomal activity against Trypanosoma brucei brucei Lister 427 blood stream form. Type of series: functional.
Series [7] is described as follows: Resistance factor, ratio of EC50 for antitrypanosomal activity against drug resistant Trypanosoma brucei ISMR1 to antitrypanosomal activity against Trypanosoma brucei brucei Lister 427 blood stream form. Type of series: functional.

For orientation: EC50 means the midpoint of the concentration-response curve.

As for `Nc1nc2c(ccn2[C@@H]2O[C@H](CO)[C@@H](O)[C@H]2O)c(=O)[nH]1`, the EC50 in series [1] is > 64 µM; in series [2], 12.9 µM; in the series with MRC5, > 64 µM. For the same compound, the selectivity ratio in series [3] is > 5.
In the case of `OC[C@H]1O[C@@H](n2cc(Cl)c3c(OC4CCCCC4)ncnc32)[C@H](O)[C@@H]1O`, the EC50 was 0.4 µM in series [1], 0.38 µM in series [2] and > 64 µM with MRC5. In addition, the selectivity ratio in series [4] is > 161; in series [3] it was > 168.
For `Nc1nc2c(c(Br)cn2[C@@H]2O[C@H](CO)[C@@H](O)[C@H]2O)c(=O)[nH]1`, the figures for the EC50 (in series [1]; in series [2]; with MRC5) were 2.01 µM, 0.49 µM and > 64 µM, respectively. Further, the figures for the selectivity ratio in series [4] and in series [3] were > 31 and > 130, respectively.
Regarding `O=c1[nH]cnc2c1c(I)cn2[C@@H]1O[C@H](CO)[C@@H](O)[C@H]1O`, the EC50 in series [1] was 57.3 µM; in series [2], 23.9 µM; in the series with MRC5, > 64 µM. Further, the results for the selectivity ratio in series [4] and in series [3] were > 1.1 and > 2.7, respectively.
With `N=C(N)c1ccc(OCCCCCOc2ccc(C(=N)N)cc2)cc1`, the Ratio EC50 in series [5] was determined as 1.8; in series [6] it was 94.6; in series [7] it was 13.8.
`O=c1[nH]cnc2c1c(F)cn2[C@@H]1O[C@H](CO)[C@@H](O)[C@H]1O`: the EC50 stood at 0.1 µM in series [1], 1.06 µM in series [2] and 2.03 µM with MRC5. Also, the selectivity ratio in series [4] came out at 21; in series [3], 1.9.
With `O=c1[nH]cnc2c1c(-c1ccccc1)cn2[C@@H]1O[C@H](CO)[C@@H](O)[C@H]1O`, the EC50 in series [1] is 32.2 µM; in series [2], 9.4 µM; with MRC5 it was > 64 µM. Besides, the selectivity ratio is > 2 in series [4] and > 6.8 in series [3].
In the case of `COc1ncnc2c1ccn2[C@@H]1O[C@H](CO)C[C@H]1O`, the concentration giving a half-maximal response (EC50) (in series [1]; in series [2]; with MRC5) was > 64 µM each time.
Take `CCCCCOc1ncnc2c1c(Cl)cn2[C@@H]1O[C@H](CO)[C@@H](O)[C@H]1O`: the EC50 in series [1] was 0.088 µM; in series [2], 0.032 µM; in the series on MRC5, 0.1 µM. For the same compound, the results for the selectivity ratio in series [4] and in series [3] were 1.1 and 3.2, respectively.
As for `N=C(N)c1ccc(/N=N/Nc2ccc(C(=N)N)cc2)cc1`, the Ratio EC50 in series [5] came out at 10.6; in series [6], 16.9; in series [7] it was 6.9.
For `CCCOc1ncnc2c1c(Cl)cn2[C@@H]1O[C@H](CO)[C@@H](O)[C@H]1O`, the concentration giving a half-maximal response (EC50) in series [1] turned out to be 0.081 µM; in series [2], 0.076 µM; in the series on MRC5, 2.81 µM. The selectivity ratio in series [4] was found to be 34; in series [3] it was 37.
With `O=c1[nH]cnc2c1ncn2[C@@H]1O[C@H](CO)C[C@H]1O`, the 50% effective concentration (EC50) is 1.1 µM in series [1], 6.7 µM in series [2] and > 64 µM in the series on MRC5.
On to `CC(C)COc1ncnc2c1c(Cl)cn2[C@@H]1O[C@H](CO)[C@@H](O)[C@H]1O`, for which the figures for the EC50 (in series [1]; in series [2]; with MRC5) were 0.071 µM, 0.03 µM and 49.5 µM, respectively. For the same compound, the selectivity ratio was 694 in series [4] and 1670 in series [3].
For the compound `O=c1[nH]cnc2c1c(Cl)cn2[C@@H]1O[C@H](CO)[C@@H](O)[C@H]1O`, the EC50 in series [1] is 10.7 µM; in series [2], 25.1 µM; in the series on MRC5, > 64 µM. Further, the results for the selectivity ratio in series [4] and in series [3] were > 6 and > 2.5, respectively.
`CCCCOc1ncnc2c1c(Cl)cn2[C@@H]1O[C@H](CO)[C@@H](O)[C@H]1O`: the EC50 was 0.069 µM in series [1], 0.036 µM in series [2] and 1.32 µM in the series with MRC5. Besides, the selectivity ratio in series [4] was 19; in series [3], 37.
In the case of `OC[C@H]1O[C@@H](n2cc(Cl)c3c(OC4CCCC4)ncnc32)[C@H](O)[C@@H]1O`, the EC50 was found to be 0.2 µM in series [1], 0.12 µM in series [2] and 38.1 µM in the series on MRC5. In addition, the selectivity ratio in series [4] was 191; in series [3] it was 326.
Consider `Nc1nc(Cl)c2ccn([C@@H]3O[C@H](CO)[C@@H](O)[C@H]3O)c2n1`, for which the EC50 in series [1] was 0.49 µM; in series [2], 0.18 µM; in the series on MRC5, > 64 µM. Moreover, the selectivity ratio is > 131 in series [4] and > 347 in series [3].
Turning to `CC(C)CCOc1ncnc2c1c(Cl)cn2[C@@H]1O[C@H](CO)[C@@H](O)[C@H]1O`, the EC50 in series [1] is 0.058 µM; in series [2], 0.029 µM; with MRC5, > 64 µM. Besides, the selectivity ratio in series [4] was > 1100; in series [3], > 2200.
For `COc1ncnc2c1c(Br)cn2[C@@H]1O[C@H](CO)C[C@H]1O`, in that order: 2.6 µM, 3.7 µM, 2.7 µM, 1 and 0.7.
`COc1ncnc2c1c(-c1ccc(Cl)cc1)cn2[C@@H]1O[C@H](CO)[C@@H](O)[C@H]1O`: the EC50 in series [1] is > 64 µM; in series [2] it was 22.3 µM; in the series with MRC5, 61.1 µM. Further, the selectivity ratio in series [3] is 2.7.
For the compound `Nc1ncc2ccn([C@@H]3O[C@H](CO)[C@@H](O)[C@H]3O)c2n1`, the 50% effective concentration (EC50) (in series [1]; in series [2]; with MRC5) was > 64 µM throughout.
As to `OC[C@H]1O[C@@H](n2cc(Cl)c3c(OCCOc4ccccc4)ncnc32)[C@H](O)[C@@H]1O`, the EC50 in series [1] stood at 0.13 µM; in series [2], 0.16 µM; in the series with MRC5 it was 43.2 µM. The figures for the selectivity ratio in series [4] and in series [3] were 329 and 263, respectively.
As for `O=c1[nH]cnc2c1c(Br)cn2[C@@H]1O[C@H](CO)[C@@H](O)[C@H]1O`, the concentration giving a half-maximal response (EC50) in series [1] was 52.4 µM; in series [2] it was 29.2 µM; in the series on MRC5, > 64 µM. Moreover, the selectivity ratio in series [4] was > 1.2; in series [3] it was 22.
With `Cc1ccc(C(=O)Nc2ccc(S(=O)(=O)O)c3cc(S(=O)(=O)O)cc(S(=O)(=O)O)c23)cc1NC(=O)c1cccc(NC(=O)Nc2cccc(C(=O)Nc3cc(C(=O)Nc4ccc(S(=O)(=O)O)c5cc(S(=O)(=O)O)cc(S(=O)(=O)O)c45)ccc3C)c2)c1` [SURAMIN], the results for the EC50 in series [1] and in series [2] were 0.028 µM and 0.033 µM, respectively.
Take `O=c1[nH]cnc2c1ccn2[C@@H]1O[C@H](CO)[C@@H](O)[C@H]1O` [IMMUNICILLIN H]: the EC50 in series [1] was determined as 4.2 µM; in series [2] it was 19.1 µM; in the series with MRC5, 31.3 µM. The values for the selectivity ratio in series [4] and in series [3] were 7.4 and 1.6, respectively.
Consider `Cc1nc2c(ccn2[C@@H]2O[C@H](CO)[C@@H](O)[C@H]2O)c(=O)[nH]1`, for which the EC50 in series [1] was > 64 µM; in series [2], 4.7 µM; in the series on MRC5, > 64 µM. For the same compound, in series [3], the selectivity ratio is > 13.
As for `O=c1[nH]cnc2c1ccn2[C@@H]1O[C@H](CO)C[C@H]1O`, the EC50 in series [1] was 29.6 µM; in series [2] it was 2.9 µM; with MRC5, > 64 µM. Besides, the figures for the selectivity ratio in series [4] and in series [3] were > 2 and > 22, respectively.
In the case of `OC[C@H]1O[C@@H](n2cc(Cl)c3c(OCCc4ccccc4)ncnc32)[C@H](O)[C@@H]1O`, the values for the EC50 (in series [1]; in series [2]; in the series with MRC5) were 0.095 µM, 0.03 µM and 0.31 µM, respectively. In addition, the selectivity ratio was 3.3 in series [4] and 10.3 in series [3].
For `OC[C@H]1O[C@@H](n2cc(C(F)(F)F)c3c(O)ncnc32)[C@H](O)[C@@H]1O`, the EC50 in series [1] was > 64 µM; in series [2], 10.9 µM; with MRC5, 3.28 µM. For the same compound, the selectivity ratio in series [4] was found to be 0.1; in series [3], 0.3.
On the same counts, the results for `O=c1[nH]cnc2c1c(Br)cn2[C@@H]1O[C@H](CO)C[C@H]1O` are 8.1 µM, 23 µM, > 64 µM, > 7 and > 28.
For `Nc1nc(O)c2ccn([C@@H]3O[C@H](CO)C[C@H]3O)c2n1`, the concentration giving a half-maximal response (EC50) (in series [1]; in series [2]; in the series with MRC5) was > 64 µM in each case.
On to `Nc1nc(Cl)c2c(Br)cn([C@@H]3O[C@H](CO)[C@@H](O)[C@H]3O)c2n1`, for which the half-maximal effective concentration (EC50) came to 0.13 µM in series [1], 0.047 µM in series [2] and 40.2 µM in the series with MRC5. The values for the selectivity ratio in series [4] and in series [3] were 316 and 847, respectively.
With `COCCOc1ncnc2c1c(Cl)cn2[C@@H]1O[C@H](CO)[C@@H](O)[C@H]1O`, the EC50 stood at 0.17 µM in series [1], 0.22 µM in series [2] and 4.13 µM with MRC5. The selectivity ratio was 25 in series [4] and 18.8 in series [3].
On to `COc1nc(N)nc2c1c(Br)cn2[C@@H]1O[C@H](CO)[C@@H](O)[C@H]1O`, for which the EC50 turned out to be 0.13 µM in series [1], 0.077 µM in series [2] and 3.24 µM in the series on MRC5. The values for the selectivity ratio in series [4] and in series [3] were 24 and 42, respectively.
Regarding `COc1ncnc2c1c(I)cn2[C@@H]1O[C@H](CO)[C@@H](O)[C@H]1O`, the EC50 came to 0.22 µM in series [1], 0.053 µM in series [2] and 38.4 µM in the series on MRC5. Further, the values for the selectivity ratio in series [4] and in series [3] were 168 and 708, respectively.
As to `COc1ncnc2c1c(-c1ccccc1)cn2[C@@H]1O[C@H](CO)[C@@H](O)[C@H]1O`, the concentration giving a half-maximal response (EC50) (in series [1]; in series [2]; in the series on MRC5) was > 64 µM throughout.
